Source: patent US20240209092A1, “COMBINATION THERAPIES FOR TREATING CANCER” (ADAGENE INC., priority 2021, published 2024)

Columns and labels:
[1] = test system: Renca murine kidney cancer cells; experiment: Renca cancer model, TY21580 with Anlotinib; type: in vivo, mice
Procedure: Mice were inoculated subcutaneously with Renca murine kidney cancer cells. […] Anlotinib at 3 mg/kg was p.o. dosed daily for 17 doses.

CT26 cancer model = experiment: CT26 cancer model, TY21580 with Fruquintinib; type: in vivo, mice
Procedure: Dosing started when average tumor volume reached about 120 mm^3 (n=8 per group). […] Fruquintinib at 5 mg/kg was p.o. dosed daily for 3 weeks.

[2] = test system: MC38 murine colon tumor cells; experiment: MC38 colon cancer model, ADG106 with TY21580 (FIGS. 13A-13B); type: in vivo, mice; details: Day 33; ADG106 10 mg/kg alone
Procedure: Mice were inoculated subcutaneously with MC38 murine colon tumor cells. […] These groups received either 10 mg/kg isotype control, 10 mg/kg ADG106, 0.2 or 2 mg/kg TY21580, or a combination of ADG106 and TY21580 at the same doses by IP injection. All antibodies were dosed twice a week for 4 weeks. […] No adverse effects were observed on body weights with these treatments.

[3] = test system: EMT6 murine breast cancer cells; experiment: EMT6 cancer model, ADG106 with TY21580; type: in vivo, mice; details: ADG106 0.5 mg/kg, TY21580 0.1 mg/kg, i.p. biweekly
Procedure: (§1) FIGS. 19A-19B provide the results of ADG106 administered in combination with TY21580 in the EMT6 cancer model to assess in vivo antitumor efficacy of ADG106 and TY21580 combination treatment. Mice were inoculated subcutaneously with EMT6 murine breast cancer cells. […] Intraperitoneal administration of 0.5 mg/kg ADG106 or 0.1 mg/kg TY21580, or combination of these two agents, was initiated on a biweekly schedule.

[4] = test system: CT26 murine colon tumor cells; experiment: CT26 colon cancer model, ADG106 with TY21580 (FIGS. 12A-12B); type: in vivo, mice; details: Day 19; ADG106 0.2 mg/kg and/or TY21580 0.2 mg/kg, IP twice a week
Procedure: FIGS. 12A-12B provide the results of ADG106 administered in combination with TY21580 in the mouse CT26 colon cancer model to assess in vivo antitumor efficacy of ADG106 and TY21580 combination treatment. Mice were inoculated subcutaneously with CT26 murine colon tumor cells. […] These groups received either 1 mg/kg isotype control, 0.2 mg/kg ADG106, 0.2 or 1 mg/kg TY21580, or a combination of ADG106 and TY21580 at the same doses by IP injection. All antibodies were dosed twice a week.

[5] = test system: B16F10 murine melanoma tumor cells; experiment: B16F10 melanoma model, ADG106 with TY21580 (FIG. 17); type: in vivo, mice; details: 5 mg/kg each, IP twice a week from tumor inoculation
Procedure: All antibodies were dosed twice a week.

[6] = test system: 4T1 murine breast cancer cells; experiment: 4T1 cancer model, TY22404 with ADG106; type: in vivo, mice; details: Day 33; 5 mg/kg TY22404 and/or ADG106 i.p. biweekly, four doses
Procedure: Mice were inoculated subcutaneously with 4T1 murine breast cancer cells. […] Intraperitoneal administration of Vehicle, 5 mg/kg TY22404 or ADG106, or combination of these two agents, was initiated on a biweekly schedule for four doses.

[7] = test system: A20 murine B lymphoma cells; experiment: A20 cancer model, ADG106 with TY21580; type: in vivo, mice; details: ADG106 5 mg/kg, TY21580 0.5 mg/kg, i.p. biweekly, 4 doses
Procedure: as §1, with “18A-18B” for “19A-19B”, “A20” for “EMT6”, “B lymphoma” for “breast cancer”, “5” for “0.5”, “0.5” for “0.1”, “schedule for 4 doses.” for “schedule.”

4T1 breast cancer cells = experiment: 4T1 breast cancer model, ADG106 with TY21580; type: in vivo, BALB/c mice; details: TY21580 2 mg/kg, ADG106 5 mg/kg, i.p. twice a week for 2 weeks
[8] = test system: MC38 murine colon tumor cells; experiment: MC38 cancer model, TY22404 with ADG106; type: in vivo, mice; details: Day 27 post tumor cell inoculation; 5 mg/kg each, i.p. biweekly four doses
Procedure: FIG. 25 provides the results of TY22404 administered in combination with ADG106 antibody in the MC38 cancer model to assess in vivo antitumor efficacy of the combination treatment. Mice were inoculated subcutaneously with MC38 murine colon tumor cells. […] Intraperitoneal administration of test antibodies was initiated on a biweekly schedule for four doses. Tumor growth inhibition (TGI) relative to the isotype control group was evaluated on Day 27 post tumor cell inoculation.

[9] = test system: EMT6 murine breast cancer cells; experiment: EMT6 cancer model, TY21580 with Olaparib; type: in vivo, mice; details: Olaparib 50 mg/kg p.o. daily for 21 doses
Procedure: Mice were inoculated subcutaneously with EMT6 murine breast cancer cells. […] Intraperitoneal administration of TY21580 at 0.1 mg/kg was initiated on a biweekly schedule. Olaparib at 50 mg/kg was p.o. dosed daily for 21 doses.

4T1 cancer model = details: Day 35; TY21580 2 mg/kg i.p. biweekly four doses, Docetaxel 10 mg/kg i.v. weekly 3 doses
Procedure: Dosing started when average tumor volume reached about 90 mm^3 (n=8 per group). When the mean tumor volume reached 90 mm^3, the tumor bearing mice were randomized into different treatment groups of eight mice each. […] Docetaxel at 10 mg/kg was i.v. dosed weekly for 3 doses.

Compound: COc1cc2c(Oc3ccc4[nH]c(C)cc4c3F)ccnc2cc1OCC1(N)CC1 [Anlotinib]
- TGI vs vehicle control ([1]; Day 29, Anlotinib 3 mg/kg p.o. daily for 17 doses): 93%
- antitumor effect vs vehicle control, in words ([1]; TY21580 5 mg/kg i.p. biweekly four doses, Anlotinib 3 mg/kg p.o. daily): strong antitumor activity

Compound: CNC(=O)c1c(C)oc2cc(Oc3ncnc4cc(OC)c(OC)cc34)ccc12 [Fruquintinib, reference compound]
- antitumor activity vs isotype control, in words (CT26 cancer model; TY21580 0.1 mg/kg i.p. biweekly four doses, Fruquintinib 5 mg/kg p.o. daily for 3 weeks): partial antitumor activity
- complete response (CR) (CT26 cancer model; TY21580 0.1 mg/kg, Fruquintinib 5 mg/kg, n=8 per group): no complete response

Compound: ADG106: anti-CD137 antibody, heavy chain SEQ ID NO: 240, light chain SEQ ID NO: 241
- tumor growth inhibition, in words [2]: did not inhibit tumor growth
- antitumor activity vs vehicle control, in words [3]: significant antitumor activity
- TGI vs isotype control [4]: 47%
- antitumor activity vs isotype control, in words [5]: did not inhibit tumor growth
- TGI vs vehicle control [6]: 10%
- antitumor activity vs vehicle control, in words [7]: partial antitumor activity
- anti-tumor activity vs isotype control, in words (4T1 breast cancer cells): showed anti-tumor activity
- Tumor growth inhibition (TGI) relative to isotype control [8]: 21%

Compound: O=C(c1cc(Cc2n[nH]c(=O)c3ccccc23)ccc1F)N1CCN(C(=O)C2CC2)CC1 [Olaparib, reference compound]
- antitumor effect vs vehicle control, in words [9]: no significant antitumor effect

Compound: CC(=O)O[C@@]12CO[C@@H]1C[C@H](O)[C@@]1(C)C(=O)[C@H](O)C3=C(C)[C@@H](OC(=O)[C@H](O)[C@@H](NC(=O)OC(C)(C)C)c4ccccc4)C[C@@](O)([C@@H](OC(=O)c4ccccc4)[C@H]21)C3(C)C [Docetaxel, reference compound]
- TGI vs vehicle control (4T1 cancer model): 38.3%
